Reference: patent US20140349970A1 (ABBVIE INC., priority 2009, published 2014)
Where a name gives a salt, the structure may show the parent alone.

biological target: T1, Syk catalytic domain (aa 356-635 with a C-terminal His-tag) (Homo sapiens, UniProt P43405); test: In vitro Syk kinase activity measured by trFRET, Syk catalytic domain; type: biochemical; conditions: not given
T1 construct: His-tag (C); made in house
In short: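 Kinase reaction: 0.14 nM His-tagged catalytic domain, 0.2 μM biotin-TYR1 peptide, 0.001 mM ATP in 50 mM MOPSO pH 6.5 with MgCl2, MnCl2, DTT, BSA, vanadate, ~60 min at rt, then EDTA quench. Phosphoproduct detected by trFRET (Eu anti-pTyr antibody/streptavidin-APC, 665 nm emission); IC50 from signal in linear range.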

Compound | IC50
CC(C)(N)c1ccc(-c2nc(C3CCCCC3)n3c2cnc2[nH]ccc23)cc1 [P.3.1.1, 2-(4-(1-Cyclohexyl-6H-imidazo[1,5-a]pyrrolo[2,3-e]pyrazin-3-yl)phenyl)propan-2-amine] | 100 to 1000 nM
COc1ccc(-c2nc([C@@H]3CC[C@H](N)C3)n3c2cnc2[nH]ccc23)cc1 [P.3.1.2] | 100 to 1000 nM
CCc1c(-c2ccc(C(C)(C)N)cc2)[nH]c2ncc3cnn(C)c3c12 [P.3.1.3] | 100 to 1000 nM
C1=C(c2ncn3c2cnc2[nH]ccc23)CCNC1 [P.3.1.4, 3-(1,2,3,6-Tetrahydropyridin-4-yl)-6H-imidazo[1,5-a]pyrrolo[2,3-e]pyrazine] | > 10000 nM
Cc1nc(-c2ccc(C3(O)CCNCC3)cc2)c2cnc3[nH]ccc3n12 [P.3.1.5, 4-(4-(1-Methyl-6H-imidazo[1,5-a]pyrrolo[2,3-e]pyrazin-3-yl)phenyl)piperidin-4-ol hydrochloride] | < 100 nM
OC1(c2ccc(-c3ncn4c3cnc3[nH]ccc34)cc2)CCNCC1 [P.3.1.6] | < 100 nM
CC(C)(O)c1ccc(-c2nc(CN3CCNCC3)n3c2cnc2[nH]ccc23)cc1 [P.3.1.7] | 100 to 1000 nM
CC(C)(O)c1ccc(-c2nc(CN3CCC(N)CC3)n3c2cnc2[nH]ccc23)cc1 [P.3.1.8] | 100 to 1000 nM
CC(C)(O)c1ccc(-c2nc([C@H]3CCC[C@H](N)C3)n3c2cnc2[nH]ccc23)cc1 [P.3.1.9] | < 100 nM
CC(C)(O)c1ccc(-c2nc([C@@H]3CCNC3)n3c2cnc2[nH]ccc23)cc1 [P.3.1.10] | 100 to 1000 nM
CS(=O)(=O)c1ccc(-c2nc([C@H]3CC[C@H](N)CC3)n3c2cnc2[nH]ccc23)cc1 [P.3.1.11] | 100 to 1000 nM
COc1ccc(-c2ncn3c2cnc2[nH]cc(C4=CCNCC4)c23)cc1 [P.3.1.12] | 1000 to 10000 nM
CC1CN(Cc2nc(-c3ccc(C(C)(C)O)cc3)c3cnc4[nH]ccc4n23)CCN1 (centres unmarked) [P.3.1.13] | 100 to 1000 nM
CCc1c(-c2ccc(C(C)(C)O)cc2)[nH]c2ncc3cncn3c12 [S.1.1] | < 100 nM
CCc1c(-c2ccc(C(C)(C)O)cc2)[nH]c2ncc3cnc(N(C)C)n3c12 [S.1.2] | 100 to 1000 nM
Cn1nc(-c2ccc(C(C)(C)O)cc2)c2cnc3[nH]ccc3c21 [S.1.3] | < 100 nM
Cc1c(-c2ccc(C(C)(C)O)cc2)[nH]c2ncc3nncn3c12 [S.1.4] | 100 to 1000 nM

Compound | IC50
Cc1c(-c2ccc(C(C)(C)O)cc2)[nH]c2ncc3nnc(C)n3c12 [S.1.5] | 1000 to 10000 nM
CCc1c(-c2ccc(C(C)(C)O)cc2)[nH]c2ncc3cccn3c12 [S.1.6] | < 100 nM
CCc1c(-c2ccc(C(C)(C)O)cc2)[nH]c2nc(C)c3cncn3c12 [S.1.7] | 100 to 1000 nM
CCc1c(-c2ccc(C(C)(C)O)cc2)[nH]c2ncc3cnnn3c12 [S.1.8] | < 100 nM
CCc1c(-c2ccc(C(C)(C)O)cc2)[nH]c2ncc3nncn3c12 [S.1.9] | 100 to 1000 nM
Cc1cnc2cnc3[nH]c(-c4ccc(C(C)(C)O)cc4)cc3n12 [S.1.10] | 100 to 1000 nM
Cc1nc(-c2ccc(C(C)(C)O)s2)c2cnc3[nH]ccc3n12 [S.1.11] | < 100 nM
Cn1ncc2cnc3[nH]c(-c4ccc[nH]4)cc3c21 [T.3.1.2] | 100 to 1000 nM
COc1ccc(-c2nc([C@H]3CCC[C@@H](N)C3)n3c2cnc2[nH]ccc23)cc1 [T.3.1.3] | 100 to 1000 nM
COc1ccc(-c2nc(CN3CCNCC3)n3c2cnc2[nH]ccc23)cc1 [T.3.1.4] | 100 to 1000 nM
c1cc2c(ncc3c(-c4ccc(OC5CCNC5)cc4)ncn32)[nH]1 (centres unmarked) [T.3.1.5] | 100 to 1000 nM
COc1ccc(-c2nc(CN3CCNC(CO)C3)n3c2cnc2[nH]ccc23)cc1 (centres unmarked) [T.3.1.6] | 100 to 1000 nM
CS(=O)(=O)c1ccc(-c2nc(COCCN)n3c2cnc2[nH]ccc23)cc1 [T.4.1.1] | 100 to 1000 nM
CC(C)(O)c1ccc(-c2nc(CC3CCNCC3)n3c2cnc2[nH]ccc23)cc1 [T.4.1.2] | < 100 nM
CC(C)(N)CCc1nc(-c2ccc(C(C)(C)O)cc2)c2cnc3[nH]ccc3n12 [T.4.1.3] | 100 to 1000 nM
CC(=O)c1ccc(-c2nn(C)c3c2cnc2[nH]ccc23)cc1 [W.1.1, 1-(4-(1-Methyl-1,6-dihydropyrazolo[3,4-d]pyrrolo[2,3-b]pyridin-3-yl)phenyl)ethanone] | 100 to 1000 nM

same assay, conditions: Syk catalytic domain (aa 356-635), trFRET, 0.001 mM ATP

Compound | IC50
COc1ccc(-c2nc(CN(C)C)n3c2cnc2[nH]ccc23)cc1 [N.1.89] | 1000 to 10000 nM
CS(=O)(=O)c1ccc(-c2ncn3c2cnc2[nH]ccc23)cc1 [N.1.90] | < 100 nM
COc1ccc(-c2nc(C(C)C)n3c2cnc2[nH]ccc23)cc1 [N.1.91] | 100 to 1000 nM
CCCc1nc(-c2ccc(OC)cc2)c2cnc3[nH]ccc3n12 [N.1.92] | < 100 nM
COc1ccc(-c2nc(CNC3CCCCC3O)n3c2cnc2[nH]ccc23)cc1 (centres unmarked) [N.1.93] | 1000 to 10000 nM
CS(=O)(=O)c1ccc(-c2nc(CC3CNCCO3)n3c2cnc2[nH]ccc23)cc1 (centres unmarked) [N.1.94] | 100 to 1000 nM
CN1CCN(C(=O)CCO)C[C@@H]1c1nc(-c2ccc(C(C)(C)O)cc2)c2cnc3[nH]ccc3n12 [N.1.95] | 100 to 1000 nM
CN1CCN(Cc2nc(-c3ccc(C(C)(C)O)cc3)c3cnc4[nH]ccc4n23)CC1 [N.1.96] | 1000 to 10000 nM
CC(C)(O)c1ccc(-c2nc(CN3CCCNCC3)n3c2cnc2[nH]ccc23)cc1 [N.1.97] | 100 to 1000 nM
COc1ccc(-c2ncn3c2cnc2[nH]ccc23)cc1 [N.1.98] | < 100 nM
Cc1nc(-c2ccc(C3(O)CCN(C(=O)OC(C)(C)C)CC3)cc2)c2cnc3[nH]ccc3n12 [N.1.99] | < 100 nM
Cn1cc(-c2cc3c(ncc4cnn(C)c43)[nH]2)c2cnccc21 [N.1.100] | 100 to 1000 nM
Cn1cc(-c2cc3c(ncc4cnn(C)c43)[nH]2)c2cc(C(C)(C)O)ccc21 [N.1.101] | < 100 nM
Cc1nc(-c2ccc(C(C)(C)O)cc2F)c2cnc3[nH]ccc3n12 [N.1.102] | 100 to 1000 nM
Cc1nc(-c2ccc(C(C)(C)O)cc2Cl)c2cnc3[nH]ccc3n12 [N.1.103] | 1000 to 10000 nM
Cc1cc(C(C)(C)O)ccc1-c1nc(C)n2c1cnc1[nH]ccc12 [N.1.104] | 1000 to 10000 nM
COc1ccc(-c2nc(CCN(C)C)n3c2cnc2[nH]ccc23)cc1 [N.1.105] | 1000 to 10000 nM
COc1ccc(-c2nnn3c2cnc2[nH]ccc23)cc1 [N.1.107] | 100 to 1000 nM
Cc1nc(-c2ccc(C(C)(C)O)c(Cl)c2)c2cnc3[nH]ccc3n12 [N.1.108] | < 100 nM
CC(C)(O)c1ccc(-c2nc(-c3ccccc3CO)n3c2cnc2[nH]ccc23)cc1 [N.1.109] | < 100 nM
CC(C)(O)c1ccc(-c2ncn3c2cnc2[nH]cc(CO)c23)cc1 [N.1.110] | 100 to 1000 nM
Cc1ccc2c(c1)c(-c1cc3c(ncc4cnn(C)c43)[nH]1)cn2C [N.1.111] | < 100 nM
Cn1cc(-c2cc3c(ncc4cnn(C)c43)[nH]2)c2cc(OCCN3CCOCC3)ccc21 [N.1.112] | < 100 nM
COc1ccc(-c2nc(CO)n3c2cnc2[nH]ccc23)cc1 [N.1.113] | 100 to 1000 nM

Compound | IC50
COc1ccc(-c2nc(CNC3CC3)n3c2cnc2[nH]ccc23)cc1 [N.1.114] | 1000 to 10000 nM
Cc1cc(-c2cc3c(ncc4cnn(C)c43)[nH]2)ccc1N1CCN(C)CC1 [N.1.115] | < 100 nM
COc1ccc2c(n1)c(-c1cc3c(ncc4cnn(C)c43)[nH]1)cn2C [N.1.116] | 100 to 1000 nM
Cn1cc(-c2cc3c(ncc4cnn(C)c43)[nH]2)c2nccnc21 [N.1.117] | 100 to 1000 nM
Cn1ncc2cnc3[nH]c(-c4ccncc4)cc3c21 [N.2.1] | 100 to 1000 nM
Cn1ncc2cnc3[nH]c(-c4cccnc4)cc3c21 [N.2.2] | 100 to 1000 nM
CN(C)CCOc1ccc(-c2cc3c(ncc4cnn(C)c43)[nH]2)cc1 [N.2.3] | 100 to 1000 nM
Cn1ncc2cnc3[nH]c(-c4ccc(OCCN5CCOCC5)cc4)cc3c21 [N.2.4] | < 100 nM
Cn1ncc2cnc3[nH]c(-c4ccc(OCCCN5CCOCC5)cc4)cc3c21 [N.2.5] | < 100 nM
Cn1ncc2cnc3[nH]c(-c4cccc5ncccc45)cc3c21 [N.2.6] | 1000 to 10000 nM
Cn1ncc2cnc3[nH]c(-c4ccc5ncccc5c4)cc3c21 [N.2.7] | 100 to 1000 nM
Cn1ncc2cnc3[nH]c(-c4ccc5nccnc5c4)cc3c21 [N.2.8] | 100 to 1000 nM
COc1ccc2c(c1)c(-c1cc3c(ncc4cnn(C)c43)[nH]1)cn2CC(=O)N1CCOCC1 [N.2.9] | < 100 nM
COc1ccc2c(c1)c(-c1cc3c(ncc4cnn(C)c43)[nH]1)cn2CCN1CCOCC1 [N.2.11] | < 100 nM
COc1ccc2c(c1)c(-c1cc3c(ncc4cnn(C)c43)[nH]1)cn2CCO [N.2.12] | < 100 nM
COc1ccc2c(c1)c(-c1cc3c(ncc4cnn(C)c43)[nH]1)cn2CCN(C)C [N.2.13] | 100 to 1000 nM
COc1ccc2c(c1)c(-c1cc3c(ncc4cnn(C)c43)[nH]1)cn2CC(=O)N1CCN(C)CC1 [N.2.14] | < 100 nM
COc1ccc2c(c1)c(-c1cc3c(ncc4cnc([C@@H]5CCNC5)n43)[nH]1)cn2C [T.1.1.2, (R)-7-(5-Methoxy-1-methyl-1H-indol-3-yl)-1-(pyrrolidin-3-yl)-6H-imidazo[1,5-a]pyrrolo[2,3-e]pyrazine diacetate] | < 100 nM
COc1ccc2c(c1)c(-c1cc3c(ncc4cnc(CCCN)n43)[nH]1)cn2C [T.1.1.3] | < 100 nM
COc1ccc2c(c1)c(-c1cc3c(ncc4cnc(CCN)n43)[nH]1)cn2C [T.1.1.4] | < 100 nM
CS(=O)(=O)c1cccc(-c2cc3c(ncc4cnc(CCCN)n43)[nH]2)c1 [T.1.1.6] | 100 to 1000 nM
COc1ccc2c(c1)c(-c1cc3c(ncc4cnc(CN)n43)[nH]1)cn2C [T.2.1, (7-(5-Methoxy-1-methyl-1H-indol-3-yl)-6H-imidazo[1,5-a]pyrrolo[2,3-e]pyrazin-1-yl)methanamine] | 100 to 1000 nM
Cn1ncc2cnc3[nH]c(-c4cccc(CN)c4)cc3c21 [T.3.1, (3-(1-Methyl-1,6-dihydropyrazolo[3,4-d]pyrrolo[2,3-b]pyridin-7-yl)phenyl)methanamine] | 1000 to 10000 nM
